This passage reports IC50 results from patent US7803801B2, “Aminopyridine compounds having Syk inhibitory activity” (Japan Tobacco, Inc., priority 2005, dated 2010).

pIC50: −log10 of the molar value. Where a name gives a salt, the structure may show the parent alone. Read-outs that look alike come from different tables or passages of the source.

Experiment [1] has as its system cultured human mast cells. As to the kind of experiment: Degranulation inhibition test using cultured human mast cells (IgE cross-linking, β-Hexosaminidase release). Format: cell-based. The settings on record: Mast cell, cultured human mast cells, read-out: human degranulation ave. IC50. In outline: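 CD34+ cord-blood cells cultured ≥8 weeks with SCF/IL-6/IL-3; FcεRI primed 5 days with rhIL-4 (1 ng/mL) and hIgE (0.5 μg/mL). Compound (0.1% DMSO) preincubated 10 min at 37 °C, then anti-IgE (final 10 μg/mL) 30 min; released β-hexosaminidase read at 405 nm versus total lysate, IC50 (M).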

Experiment [2] deals with GST-Syk Full Protein (human) (Homo sapiens, UniProt P43405). As to the kind of experiment: Syk kinase inhibition test (HTRF method). The class given is biochemical. In outline:
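Human GST-Syk full-length (6.4 nM) phosphorylated biotin-EDPDYEWPSA-NH2 (250 nM) with 100 μM ATP in HEPES pH 7.0/MgCl2 buffer, 2% DMSO, 30 min at room temperature. EDTA stop, then HTRF detection (streptavidin-XL665, Eu anti-phosphotyrosine) after 1 h; 665/620 ratio read.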
On the technique in general: Time-resolved FRET reads energy transfer from a long-lived donor to a nearby acceptor.

[3] abbreviates: Tables 1-x, compounds A, read-out: sykHTRF ave IC50.
Where [4] appears, read: anti-hIgE stimulation, β-Hexosaminidase index, average.
Where [5] appears, read: HTRF, 100 μM ATP, 30 min room temperature, average, read-out: sykHTRF ave IC50.
Where [6] appears, read: Tables 2-x, thiophene compounds B.
Setting [7] is: Tables 2-x, thiophene compounds B, read-out: sykHTRK ave IC50.

Regarding `Cc1ccnc(Nc2cccc(-c3sc(N4CCN(C=O)CC4)nc3C)n2)c1` [Compound A-437, 4-{4-methyl-5-[6-(4-methylpyridin-2-ylamino)pyridin-2-yl]thiazol-2-yl}piperazine-1-carbaldehyde], the pIC50 in experiment [1] (Tables 1-x, compounds A) is 6.00 to 7.00; in experiment [2] (setting [3]), more than 7.00.
On the same counts, the results for `Cc1ccnc(Nc2cccc(-c3cnc(N4CCC(C)(CC(=O)O)CC4)s3)n2)c1` [Compound A-613, (4-methyl-1-{5-[6-(4-methylpyridin-2-ylamino)pyridin-2-yl]thiazol-2-yl}piperidin-4-yl)acetic acid dihydrochloride] are 6.00 to 7.00 and more than 7.00.
Regarding `Cc1ccnc(Nc2cccc(-c3cnc([C@@H](N)COCc4ccccc4)s3)n2)c1` [Compound A-44], the pIC50 in experiment [1] (setting [4]) and in experiment [2] (setting [5]) was less than 6.00 throughout.
Consider `CC(=O)N[C@@H](C)c1nc(N)c(-c2cccc(Nc3cc(C)ccn3)n2)s1` [Compound A-115], for which the pIC50 in experiment [1] (setting [4]) and in experiment [2] (setting [5]) was less than 6.00 each time.
With `O=C([C@H]1CC[C@H](c2ncc(-c3cccc(Nc4cc5ccccc5cn4)n3)s2)CC1)N1CCC(O)CC1` [Compound A-307], the pIC50 in experiment [1] (setting [4]) and in experiment [2] (setting [5]) was 6.00 to 7.00 in each case.
`Cc1ccnc(Nc2cccc(-c3cnc(CCc4ccc(C(=O)N5CCC(O)CC5)cc4)s3)n2)c1` [Compound A-233]: the pIC50 in experiment [1] (setting [4]) and in experiment [2] (setting [5]) was 6.00 to 7.00 throughout.
Consider `CC(=O)c1ccc(-c2ncc(C)c(Nc3cc(C)ccn3)n2)s1` [Compound B-29], for which the pIC50 in experiment [1] (setting [6]) is less than 6.00; in experiment [2] (setting [7]), 6.00 to 7.00.
For `Cc1ccnc(Nc2cccc(-c3cnc(N4CCN(C(=O)CCC(=O)O)CC4)s3)n2)c1` [Compound A-551, 4-(4-{5-[6-(4-methylpyridin-2-ylamino)pyridin-2-yl]thiazol-2-yl}piperazin-1-yl)-4-oxobutyric acid], the negative-log IC50 (pIC50) in experiment [1] (Tables 1-x, compounds A) was less than 6.00; in experiment [2] (setting [3]), more than 7.00.
As for `CC(=O)N1CCC(N(c2ncc(-c3cccc(Nc4cc(C)ccn4)n3)s2)C(C)C)CC1` [Compound A-515, 1-[4-(N-isopropyl-N-{5-[6-(4-methylpyridin-2-ylamino)pyridin-2-yl]thiazol-2-yl}amino)piperidin-1-yl]ethanone], the pIC50 is less than 6.00 in experiment [1] (Tables 1-x, compounds A) and more than 7.00 in experiment [2] (setting [3]).
On the same counts, the results for `Cc1ccnc(Nc2cccc(-c3cnc([C@H](CO)NC(=O)c4ccc(O)cc4)s3)n2)c1` [Compound A-394] are 6.00 to 7.00 and 6.00 to 7.00.
Regarding `NC(=O)[C@H]1CC[C@H](c2ncc(-c3cccc(Nc4cc(Cl)ccn4)n3)s2)CC1` [Compound A-338, trans-4-{5-[6-(4-chloropyridin-2-ylamino)pyridin-2-yl]thiazol-2-yl}cyclohexanecarboxamide], the pIC50 in experiment [1] (setting [4]) and in experiment [2] (setting [5]) was more than 7.00 in each case.
For the compound `Cc1ccnc(Nc2cccc(-c3cnc(C(=O)NC4CCCCC4O)s3)n2)c1` (centres unmarked) [Compound A-67], the results for the pIC50 in experiment [1] (setting [4]) and in experiment [2] (setting [5]) were less than 6.00 and 6.00 to 7.00, respectively.
Take `Cc1ccnc(Nc2cccc(-c3ccc(CO)s3)n2)c1` [Compound B-12, {5-[6-(4-methylpyridin-2-ylamino)pyridin-2-yl]thiophen-2-yl}methanol]: the pIC50 is 6.00 to 7.00 in experiment [1] (setting [6]) and more than 7.00 in experiment [2] (setting [7]).
On the same counts, the results for `CC(=O)Nc1cc(C)c(-c2cccc(Nc3cc(C)ccn3)n2)s1` [Compound B-8] are less than 6.00 and 6.00 to 7.00.
On the same counts, the results for `CCC(O)c1ccc(-c2cccc(Nc3cc(C)ccn3)n2)s1` (centres unmarked) [Compound B-47] are 6.00 to 7.00 and 6.00 to 7.00.
With `Cc1ccnc(Nc2cccc(-c3ccc(C(=O)NC(C)(C)C(=O)O)s3)n2)c1` [Compound B-100], the negative-log IC50 (pIC50) is less than 6.00 in experiment [1] (setting [6]) and 6.00 to 7.00 in experiment [2] (setting [7]).
Turning to `Cc1ccnc(Nc2cccc(-c3cnc(C(=O)N4CCCC(O)C4)s3)n2)c1` (centres unmarked) [Compound A-61], the pIC50 in experiment [1] (setting [4]) and in experiment [2] (setting [5]) was 6.00 to 7.00 in each case.
Regarding `Cc1ccnc(Nc2cccc(-c3cnc(C(=O)NC(C)(C)CO)s3)n2)c1` [Compound A-34], the results for the pIC50 in experiment [1] (setting [4]) and in experiment [2] (setting [5]) were less than 6.00 and 6.00 to 7.00, respectively.
As to `CC(=O)N1CC[C@@H](N(C)c2ncc(-c3cccc(Nc4cc(C)ccn4)n3)s2)C1` [Compound A-563, 1-[(R)-3-(N-methyl-N-{5-[6-(4-methylpyridin-2-ylamino)pyridin-2-yl]thiazol-2-yl}amino)pyrrolidin-1-yl]ethanone], the negative-log IC50 (pIC50) in experiment [1] (Tables 1-x, compounds A) is 6.00 to 7.00; in experiment [2] (setting [3]), more than 7.00.
On to `Cc1ccnc(Nc2cccc(-c3cnc(CC(C)(C)NS(C)(=O)=O)s3)n2)c1` [Compound A-337, N-(1,1-dimethyl-2-{5-[6-(4-methylpyridin-2-ylamino)pyridin-2-yl]-thiazol-2-yl}ethyl)methanesulfonamide], for which the pIC50 in experiment [1] (setting [4]) and in experiment [2] (setting [5]) was more than 7.00 in each case.
As to `Cc1ccnc(Nc2cccc(-c3cnc([C@H](C)NC(=O)N(C)C)s3)n2)c1` [Compound A-56], the pIC50 in experiment [1] (setting [4]) and in experiment [2] (setting [5]) was 6.00 to 7.00 in each case.
Take `Cc1ccnc(Nc2cccc(-c3cnc(N4CCOCC4)s3)n2)c1` [Compound A-417, N-(4-methylpyridin-2-yl)-N-[6-(2-morpholin-4-ylthiazol-5-yl)pyridin-2-yl]amine]: the negative-log IC50 (pIC50) in experiment [1] (Tables 1-x, compounds A) was 6.00 to 7.00; in experiment [2] (setting [3]), more than 7.00.
With `Cc1ccnc(Nc2cccc(-c3cnc([C@H]4CC[C@H](C(=O)N5CCCC(O)C5)CC4)s3)n2)c1` (some centres unmarked) [Compound A-238], the pIC50 in experiment [1] (setting [4]) and in experiment [2] (setting [5]) was 6.00 to 7.00 in each case.
`C[C@H](O)c1ncc(-c2cccc(Nc3cc(OCCO)ccn3)n2)s1` [Compound A-344, (S)-1-(5-{6-[4-(2-hydroxyethoxy)pyridin-2-ylamino]pyridin-2-yl}thiazol-2-yl)ethanol]: the pIC50 in experiment [1] (setting [4]) and in experiment [2] (setting [5]) was more than 7.00 each time.
In the case of `Cc1ccnc(Nc2cccc(-c3cnc(CNCC4(O)CCCCC4)s3)n2)c1` [Compound A-196], the pIC50 in experiment [1] (setting [4]) and in experiment [2] (setting [5]) was 6.00 to 7.00 in each case.
Regarding `COC(=O)N1CCC(c2ncc(-c3cccc(Nc4cc(C)ccn4)n3)s2)CC1` [Compound A-170], the pIC50 in experiment [1] (setting [4]) and in experiment [2] (setting [5]) was 6.00 to 7.00 throughout.
On to `Cc1ccnc(Nc2cccc(-c3cnc(CCC4CCN(C(=O)CO)CC4)s3)n2)c1` [Compound A-263, 2-hydroxy-1-[4-(2-{5-[6-(4-methylpyridin-2-ylamino)pyridin-2-yl]thiazol-2-yl}ethyl)piperidin-1-yl]ethanone], for which the pIC50 in experiment [1] (setting [4]) was 6.00 to 7.00; in experiment [2] (setting [5]), more than 7.00.
For the compound `Cc1ccnc(Nc2cccc(-c3cnc(C(=O)NCC(C)O)s3)n2)c1` (centres unmarked) [Compound A-66], the pIC50 is less than 6.00 in experiment [1] (setting [4]) and 6.00 to 7.00 in experiment [2] (setting [5]).
On to `Cc1ccnc(Nc2cccc(-c3cnc(N4CCC(C)(C(=O)O)CC4)s3)n2)c1` [Compound A-540, 4-methyl-1-{5-[6-(4-methylpyridin-2-ylamino)pyridin-2-yl]thiazol-2-yl}piperidine-4-carboxylic acid], for which the pIC50 in experiment [1] (Tables 1-x, compounds A) is 6.00 to 7.00; in experiment [2] (setting [3]), more than 7.00.
In the case of `Cc1ccnc(Nc2cccc(-c3cnc(N4CCC[C@H]4C(=O)NCC(F)(F)F)s3)n2)c1` [Compound A-530, N-(2,2,2-trifluoroethyl)-(S)-1-{5-[6-(4-methylpyridin-2-ylamino)pyridin-2-yl]thiazol-2-yl}pyrrolidine-2-carboxamide], the negative-log IC50 (pIC50) in experiment [1] (Tables 1-x, compounds A) is 6.00 to 7.00; in experiment [2] (setting [3]), more than 7.00.
As to `COC(=O)CCCCc1ncc(-c2cccc(Nc3cc(C)ccn3)n2)s1` [Compound A-68], the pIC50 in experiment [1] (setting [4]) is less than 6.00; in experiment [2] (setting [5]) it was 6.00 to 7.00.
Turning to `Cc1ccnc(Nc2cccc(-c3cnc(N4CCC(CC(N)=O)CC4)s3)n2)c1` [Compound A-504, 2-(1-{5-[6-(4-methylpyridin-2-ylamino)pyridin-2-yl]thiazol-2-yl}piperidin-4-yl)acetamide], the pIC50 was 6.00 to 7.00 in experiment [1] (Tables 1-x, compounds A) and more than 7.00 in experiment [2] (setting [3]).
On to `Cc1ccnc(Nc2cccc(-c3cnc([C@H](C)NC(=O)CO)s3)n2)c1` [Compound A-147, 2-hydroxy-N—((S)-1-{5-[6-(4-methylpyridin-2-ylamino)pyridin-2-yl]thiazol-2-yl}ethyl)acetamide], for which the results for the pIC50 in experiment [1] (setting [4]) and in experiment [2] (setting [5]) were 6.00 to 7.00 and more than 7.00, respectively.
On to `Cc1ccnc(Nc2cccc(-c3cnc(N4CCC(NC(=O)CO)CC4)s3)n2)c1` [Compound A-482, 2-hydroxy-N-(1-{5-[6-(4-methylpyridin-2-ylamino)pyridin-2-yl]thiazol-2-yl}piperidin-4-yl)acetamide], for which the pIC50 was 6.00 to 7.00 in experiment [1] (Tables 1-x, compounds A) and more than 7.00 in experiment [2] (setting [3]).
`COc1ccnc(Nc2cccc(-c3cnc([C@H](C)O)s3)n2)c1` [Compound A-320, (S)-1-{5-[6-(4-methoxypyridin-2-ylamino)pyridin-2-yl]thiazol-2-yl}ethanol]: the pIC50 in experiment [1] (setting [4]) and in experiment [2] (setting [5]) was more than 7.00 each time.
For `Cc1ccnc(Nc2cccc(-c3cnc(N(C)C4CCC(C(=O)O)CC4)s3)n2)c1` (centres unmarked) [Compound A-444, 4-(methyl-{5-[6-(4-methylpyridin-2-ylamino)pyridin-2-yl]thiazol-2-yl}amino)cyclohexanecarboxylic acid], the pIC50 was 6.00 to 7.00 in experiment [1] (Tables 1-x, compounds A) and more than 7.00 in experiment [2] (setting [3]).
Regarding `CC(=O)NCC(=O)N1CCC(N(C)c2ncc(-c3cccc(Nc4cc(C)ccn4)n3)s2)CC1` [Compound A-461, N-{2-[4-(N′-methyl-N′-{5-[6-(4-methylpyridin-2-ylamino)pyridin-2-yl]thiazol-2-yl}amino)piperidin-1-yl]-2-oxoethyl}acetamide], the pIC50 in experiment [1] (Tables 1-x, compounds A) was 6.00 to 7.00; in experiment [2] (setting [3]), more than 7.00.

The term pIC50 denotes −log10 of the IC50, conventionally taken in molar units.
